Experimental findings from patent US5444084A, “Substituted heterocyclic derivative having squalene epoxidase inhibition action and its use” (Banyu Pharmaceutical Co., Ltd., priority 1992, dated 1995) are described below.

In one assay the target is T1, Human squalene epoxidase (Homo sapiens, UniProt Q14534).
T1 construct: The resultant supernatant is used as the squalene epoxidase fraction in the later-described test; endogenous in cells; host or cells: Hep-G2 human hepatoma cells (microsomes solubilized with Triton X-100)
Briefly: Human squalene epoxidase inhibition action. To be noted: solubilized Hep-G2 microsome fraction, 8 μM 3H-squalene, 37° C., 60 minutes, read-out: Inhibition rate at 3 μM concentration. Format: biochemical. The procedure: Squalene epoxidase inhibition action
(1) Preparation of squalene epoxidase
Human squalene epoxidase is prepared in accordance with the process disclosed in J. Biol. Chem., 245, 1670 (1970); ibid., 250, 1572 (1975).
Namely, human hepatoma (Hep-G2) cells are cultured at 37° C. under air containing 5% carbon dioxide. After completion of the culture, the cells are scraped and collected by centrifugation. The cells are suspended in 0.1M Tris-HCl buffer (pH 7.5) (1×10^8 cells/ml), the suspension is homogenized and centrifuged at 9750 Xg for 10 minutes, and then the sediment is washed with 0.1M Tris-HCl buffer (pH 7.5) and centrifuged at 105,000 Xg for 1 hour. The resultant microsome is suspended in 0.1M Tris-HCl buffer (pH 7.5) so that the protein amount becomes 20 mg/ml, and solubilized by stirring the suspension under ice cooling in the presence of 1% Triton X-100. After this solubilization treatment, the concentration of Triton X-100 is diluted to 0.125% with 1 mM EDTA and 1 mM dithiothreitol, and the dilution is centrifuged at 105,000 Xg for 1 hour. The resultant supernatant is used as the squalene epoxidase fraction in the later-described test.
(2) Assay of squalene epoxidase activity
Assay of human squalene epoxidase activity is carried out according to the method disclosed in J. Biol. Chem., 245, 1670 (1970).
Namely, 3 μl of a dimethyl sulfoxide solution of a test chemical is added to a solution consisting of 0.2 ml of the squalene epoxidase fraction [protein amount 0.4 mg, 0.1% Triton X-100, […] Tris-HCl buffer (pH 7.5)] prepared in (1), 100 μM FAD, 1 mM NADPH, 1 mM EDTA and 8 μM ^3 H-squalene-Tween 80 suspension to make the total volume 0.3 ml, and the mixture is subjected to reaction with shaking at 37° C. for 60 minutes. 0.3 ml of 10% potassium hydroxide-methanol solution is added to discontinue the reaction, and the mixture is heated at 75° C. for 1 hour. Then the non-saponified substance is extracted with petroleum ether and the extract is concentrated to dryness under a nitrogen stream. The resultant residue is dissolved in a small amount of ethyl ether, pre-coated Silicagel TCL is spotted with the extract, and development is carried out with benzeneethyl acetate (99.5:0.5). The position of the ^3 H-squalene-2,3 -epoxide in the TLC is confirmed using ergosterol acetate as a marker, and the ^3 H-squalene-2,3-epoxide portion in the TLC is cut out. The TLC piece is immersed in a toluene series scintillator and measurement is made using a liquid scintillation counter. Thereby, the inhibition rates (%) against squalene epoxidase at 3 μM concentration of compounds of this invention are determined, and the results are shown in the following Table 1.

The test system of a further assay is cholesterol biosynthesis. Briefly: Inhibition test of in vivo cholesterol biosynthesis in rat. Details: species or system rat (female SD). Conditions: 3 mg/kg oral, n = 5, rat; for 14C-cholesterol, dpm: dpm of produced 14C-cholesterol in 1 ml of plasma, control values 2282-3218 dpm; for Cholesterol biosynthesis inhibition rate: versus control group. On the procedure:
Inhibition test of in vivo cholesterol biosynthesis
In this in vivo test, female SD rats (5 weeks old) are used. The rats are raised for 9 days under an environment where illumination is applied with reversed day and night (dark from 6 a.m. to 6 p.m.), and meanwhile they can freely ingest a solid feed and water. A test chemical is orally administered two hours before dark 6 o'clock when cholesterol biosynthesis becomes maximum. The compound is dissolved in a middle-chain fatty acid triglyceride, and orally administered at 3 mg/kg in an amount of 0.5 ml/100 g body weight. Further, the same volume of the solvent (vehicle) used is administered to control animals. […] after the administration of the test chemical, 20μ Ci/100 g body weight of ^14 C-sodium acetate (56 m Ci/m mole) is intraperitoneally administered to the rats, respectively. At dark 6 o'clock blood is sampled from the abdominal artery of each animal under ether anesthesia and centrifuged to separate the plasma.
2 ml of 15% potassium hydroxide-methanol solution is added per ml of the plasma, and the mixture is heated at 75° C. for 3 hours to carry out saponification. Each sample is extracted twice, each time with 2 ml of petroleum ether, and the extract is washed with 2 ml of distilled water. Finally each extract is evaporated to dryness under a nitrogen stream.
The resultant residue is dissolved in a small amount of ethyl ether, and a pre-coated silica gel TLC is spotted with the total amount of the solution. This plate is developed with a solvent system of hexane/ethyl ether/acetic acid (85:15:4). Coloring is carried out with iodine, and radioactivity at the cholesterol part is assayed using a liquid scintillation counter.
The results (Table 2) are expressed by dpm values of produced ^14 C-cholesterol existing in 1 ml of each plasma. Further, the inhibition of cholesterol biosynthesis is calculated by comparing the amounts of ^14 C-cholesterol biosynthesis between the test groups and the control group.

T1 sequence (Q14534 whole entry): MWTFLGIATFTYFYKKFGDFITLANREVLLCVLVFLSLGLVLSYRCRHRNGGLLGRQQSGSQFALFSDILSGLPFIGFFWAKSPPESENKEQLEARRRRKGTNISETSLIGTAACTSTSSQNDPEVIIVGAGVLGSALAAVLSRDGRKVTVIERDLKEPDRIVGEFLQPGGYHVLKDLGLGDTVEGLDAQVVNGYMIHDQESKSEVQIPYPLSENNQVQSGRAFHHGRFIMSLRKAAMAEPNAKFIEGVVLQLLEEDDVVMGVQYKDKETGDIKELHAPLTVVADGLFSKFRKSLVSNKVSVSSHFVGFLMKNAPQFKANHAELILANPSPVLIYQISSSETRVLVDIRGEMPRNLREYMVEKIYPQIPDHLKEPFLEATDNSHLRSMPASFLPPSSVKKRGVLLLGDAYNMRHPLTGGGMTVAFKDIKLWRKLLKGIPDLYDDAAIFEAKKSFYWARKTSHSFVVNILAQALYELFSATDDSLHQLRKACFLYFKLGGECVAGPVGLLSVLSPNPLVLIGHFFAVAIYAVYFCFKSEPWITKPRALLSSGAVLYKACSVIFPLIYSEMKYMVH

Turning to `C/C(=C/c1cccc(/C=C/c2cccc(-c3ccsc3)c2)c1)C/C=C/C#CC(C)(C)C` [Example 23, 3-[3-[2-[3-[(1Z,4E)-2,8,8-trimethylnona-1,4-dien-6-ynyl]phenyl]ethenyl]phenyl]thiophene], on Human squalene epoxidase, the inhibition at 3 µM is 100%.

As for `CC(C)(C)C#C/C=C/C/C(=C\c1cccc(COc2cccc(-c3ccsc3)c2)c1)CO` [Example 4, (E,E)-2-(6,6-dimethyl-2-hepten-4-ynyl)-3-[3-[3-(3-thienyl)phenoxymethyl]phenyl]-2-propen-1-ol], the inhibition at 3 µM on Human squalene epoxidase was determined as 100%.

Take `CC(C)(C)C#C/C=C/CC(CO)Cc1cccc(/C=C/c2cccc(-c3ccsc3)c2)c1` (centres unmarked) [Example 12, (E,E)-2-(6,6-dimethyl-2-hepten-4-ynyl)-3-[3-[2-[3-(3-thienyl)phenyl]ethenyl]phenyl]propanol]: in the assay with cholesterol biosynthesis, the “14C-cholesterol, dpm” value is given as 1208 dpm and the “Cholesterol biosynthesis inhibition rate” value is listed as 61%. Moreover, at Human squalene epoxidase, the inhibition at 3 µM was found to be 100%.

Consider `COC/C(=C/c1cccc(OCc2cc(-c3ccsc3)cs2)c1)C/C=C/C#CC(C)(C)C` [Example 33, (E,E)-2-[3-(2-methoxymethyl-8,8-dimethylnona-1,4-dien-6-ynyl)phenoxymethyl]-4-(3-thienyl)thiophene], for which the inhibition at 3 µM on Human squalene epoxidase was found to be 100%.

Turning to `C/C(=C/CCC/C=C/c1cccc(-c2ccsc2)c1)C/C=C/C#CC(C)(C)C` [Example 18, 3-[3-[(1E,6Z,9E)-7,13,13-trimethyltetradeca-1,6,9-trien-11-ynyl]phenyl]thiophene], the inhibition at 3 µM at Human squalene epoxidase stood at 99%.

In the case of `COC/C(=C/c1cccc(CCc2cccc(-c3ccsc3)c2)c1)C/C=C/C#CC(C)(C)C` [Example 38, (E,E)-3-[3-[2-[3-(2-methoxymethyl-8,8-dimethylnona-1,4-dien-6-ynyl)phenyl]ethyl]phenyl]thiophene], in the assay with cholesterol biosynthesis, the “14C-cholesterol, dpm” value came out at 350 dpm and the “Cholesterol biosynthesis inhibition rate” value is reported as 85%. In addition, the inhibition at 3 µM at Human squalene epoxidase worked out at 100%.

In the case of `CC(C)(C)C#C/C=C/C/C(=C\c1cccc(OCc2cc(-c3ccsc3)cs2)c1)CO` [Example 5, (E,E)-2-(6,6-dimethyl-2-hepten-4-ynyl)-3-[3-[4-(3-thienyl)-2-thienylmethoxy]phenyl]-2-propen-1-ol], on Human squalene epoxidase, the inhibition at 3 µM was found to be 100%.

Regarding `C/C(=C/c1cccc(COc2cccc(-c3ccsc3)c2)c1)C/C=C/C#CC(C)(C)C` [Example 21, 3-[3-[3-[(1Z,4E)-2,8,8-trimethylnona-1,4-dien-6-ynyl]phenylmethoxy]phenyl]thiophene], at Human squalene epoxidase, the inhibition at 3 µM amounted to 100%.

With `CC(C)(C)C#C/C=C/CC(CO)Cc1cccc(OCc2cccc(-c3ccsc3)c2)c1` (centres unmarked) [Example 11, (E)-2-(6,6-dimethyl-2-hepten-4-ynyl)-3-[3-[3-(3-thienyl)phenylmethoxy]phenyl]propanol], the inhibition at 3 µM at Human squalene epoxidase amounted to 88%.

Consider `CC(C)(C)C#C/C=C/C/C(=C\CCC/C=C/c1cccc(-c2ccsc2)c1)CO` [Example 1], for which, in the assay on cholesterol biosynthesis, the “14C-cholesterol, dpm” value amounted to 275 dpm and the “Cholesterol biosynthesis inhibition rate” value is 91%. The inhibition at 3 µM on Human squalene epoxidase worked out at 100%.

Take `C/C(=C/c1cccc(OCc2cc(-c3ccsc3)cs2)c1)C/C=C/C#CC(C)(C)C` [Example 22, 2-[3-[(1Z,4E)-2,8,8-trimethylnona-1,4-dien-6-ynyl]phenoxymethyl]-4-(3-thienyl)thiophene]: at Human squalene epoxidase, the inhibition at 3 µM worked out at 100%.

Turning to `COC/C(=C/CCCCOc1cccc(-c2ccsc2)c1)C/C=C/C#CC(C)(C)C` [Example 30, (E,E)-3-[3-(6-methoxymethyl-12,12-dimethyltrideca-5,8-dien-10-ynyloxy)phenyl]thiophene], the inhibition at 3 µM at Human squalene epoxidase was determined as 100%.

`CC(O)C(C/C=C/C#CC(C)(C)C)Cc1cccc(/C=C/c2cccc(-c3ccsc3)c2)c1` (centres unmarked) [Example 43, (E,E)-3-(6,6-dimethyl-2-hepten-4-ynyl)-4-[3-[2-[3-(3-thienyl)phenyl]ethenyl]phenyl]-2-butanol]: the inhibition at 3 µM on Human squalene epoxidase was 100%.

In the case of `CSC/C(=C/CCCCOc1cccc(-c2ccsc2)c1)C/C=C/C#CC(C)(C)C` [Example 42, (E,E)-3-[3-(12,12-dimethyl-6-methylthiomethyltrideca-5,8-dien-10-ynyloxy)phenyl]thiophene], at Human squalene epoxidase, the inhibition at 3 µM was 100%.

As to `CC(C)(C)C#C/C=C/C/C(=C\c1cccc(/C=C/c2cccc(-c3ccsc3)c2)c1)CO` [Example 6, (E,E,E)-2-(6,6-dimethyl-2-hepten-4-ynyl)-3-[3-[2-[3-(3-thienyl)phenyl]ethenyl]phenyl]-2-propen-1-ol], in the assay on cholesterol biosynthesis, the “14C-cholesterol, dpm” value worked out at 871 dpm and the “Cholesterol biosynthesis inhibition rate” value is given as 73%. The inhibition at 3 µM on Human squalene epoxidase was 100%.

Regarding `CC(C)(C)C#C/C=C/C/C(=C\CCCCOc1cccc(-c2ccsc2)c1)CO` [Example 2, (E,E)-2-(6,6-dimethyl-2-hepten-4-ynyl)-7-[3-(3-thienyl)phenoxy]-2-hepten-1-ol], on Human squalene epoxidase, the inhibition at 3 µM was found to be 100%.

Take `COC(C)(C)C#C/C=C/C/C(=C\c1cccc(/C=C/c2cccc(-c3ccsc3)c2)c1)CO` [Example 8, (E,E,E)-2-(6-methoxy-6-methyl-2-hepten-4-ynyl)-3-[3-[2-[3-(3-thienyl)phenyl]ethenyl]phenyl]-2-propen-1-ol]: the inhibition at 3 µM at Human squalene epoxidase was found to be 100%.

On to `COC/C(=C/CCC/C=C/c1cccc(-c2ccsc2)c1)C/C=C/C#CC(C)(C)C` [Example 29, (E,E,E)-3-[3-(7-methoxymethyl-13,13-dimethyltetradeca-1,6,9-trien-11-ynyl)phenyl]thiophene], for which the inhibition at 3 µM on Human squalene epoxidase was 100%.

For `C=CC(C/C=C/C#CC(C)(C)C)Cc1cccc(/C=C/c2cccc(-c3ccsc3)c2)c1` (centres unmarked) [Example 44], the inhibition at 3 µM at Human squalene epoxidase came out at 100%.

Take `COC(C)(C)C#CC#CC/C(=C\c1cccc(/C=C/c2cccc(-c3ccsc3)c2)c1)CO` [Example 10, (E,E)-2-(6-methoxy-6-methyl-2,4-heptadiynyl)-3-[3-[2-[3-(3-thienyl)phenyl]ethenyl]phenyl]-2-propen-1-ol]: at Human squalene epoxidase, the inhibition at 3 µM came to 100%.

As to `COCC(C/C=C/C#CC(C)(C)C)Cc1cccc(OCc2cccc(-c3ccsc3)c2)c1` (centres unmarked) [Example 32, (E)-3-[3-[3-(2-methoxymethyl-8,8-dimethyl-4-nonen-6-ynyl)phenoxymethyl]phenyl]thiophene], the inhibition at 3 µM at Human squalene epoxidase came to 100%.
